The values that follow are results of earlier work, collected in patent publication US8889636B2, “Anti-microbial compositions” (Biotelliga Holdings Limited, priority 2010, dated 2014).

In brackets after ≈: the same amount, converted by molar mass.

For data set [1], the system named is HIV-1 regulatory protein and its viral RNA binding site.
Data set [2] relates to Candidia albacans. The following applies: modest antifungal activity.

Usually MIC stands for the least concentration at which growth counts as inhibited. As for `CCC(C)CC(C)/C=C(/C=C(C)/C=C/C=C/C=C/C=C/C=C/c1cc2c(c(=O)o1)[C@H](O)[C@@H](O)[C@H](C(O)C(O)CO)O2)C(=O)O` (some centres unmarked) [Orevactaene], the “Inhibition of binding of HIV-1 regulatory protein and its viral RNA binding site” value in data set [1] is on record as “found to inhibit binding”. For the same compound, in data set [2], the MIC was 250 µg/mL (≈ 408 µM).
